Assay results taken from patent US8048862B2, “Macrocyclic inhibitors of hepatitis C virus replication” (priority 2008, dated 2011).

These compounds were tested on hepatitis C replicon (assay: hepatitis C replicon EC50). Conditions: Hepatitis C virus; Table 3; hepatitis C replicon; read-out: EC50.
Format: cell-based
Excerpt: NS3-NS4 inhibition activity can be determined using known assay methods.

| SMILES | EC50 [nM] |
| --- | --- |
| CC1(S(=O)(=O)NC(=O)[C@@]23C[C@H]2/C=C\CCCCC[C@H](Nc2cccc(C(F)(F)F)c2)C(=O)N2C[C@H](OC(=O)N4Cc5cccc(F)c5C4)C[C@H]2C(=O)N3)CC1 [Compound 1116] | < 10 |
| CC1(S(=O)(=O)NC(=O)[C@@]23C[C@H]2/C=C\CCCCC[C@H](Nc2cccc(F)c2)C(=O)N2C[C@H](OC(=O)N4Cc5cccc(F)c5C4)C[C@H]2C(=O)N3)CC1 [Compound 1117] | 10 to 100 |
| CC1(S(=O)(=O)NC(=O)[C@@]23C[C@H]2/C=C\CCCCC[C@H](Nc2ccc(C(F)(F)F)cc2)C(=O)N2C[C@H](OC(=O)N4Cc5cccc(F)c5C4)C[C@H]2C(=O)N3)CC1 [Compound 1118] | > 100 |
| CC1(S(=O)(=O)NC(=O)[C@@]23C[C@H]2/C=C\CCCCC[C@H](Nc2ccc(OC(F)(F)F)cc2)C(=O)N2C[C@H](OC(=O)N4Cc5cccc(F)c5C4)C[C@H]2C(=O)N3)CC1 [Compound 1119] | 10 to 100 |
| CC1(S(=O)(=O)NC(=O)[C@@]23C[C@H]2/C=C\CCCCC[C@H](Nc2ccc(F)c(C(F)(F)F)c2)C(=O)N2C[C@H](OC(=O)N4Cc5cccc(F)c5C4)C[C@H]2C(=O)N3)CC1 [Compound 1120] | < 10 |
| CC(=O)Nc1ccc(N[C@H]2CCCCC/C=C\[C@@H]3C[C@@]3(C(=O)NS(=O)(=O)C3(C)CC3)NC(=O)[C@@H]3C[C@@H](OC(=O)N4Cc5cccc(F)c5C4)CN3C2=O)cc1 [Compound 1121] | 10 to 100 |
| CC1(S(=O)(=O)NC(=O)[C@@]23C[C@H]2/C=C\CCCCC[C@H](Nc2cccc(NS(C)(=O)=O)c2)C(=O)N2C[C@H](OC(=O)N4Cc5cccc(F)c5C4)C[C@H]2C(=O)N3)CC1 [Compound 1122] | 10 to 100 |
| CC1(S(=O)(=O)NC(=O)[C@@]23C[C@H]2/C=C\CCCCC[C@H](Nc2ccc(C(F)(F)F)c(F)c2)C(=O)N2C[C@H](OC(=O)N4Cc5cccc(F)c5C4)C[C@H]2C(=O)N3)CC1 [Compound 1123] | > 100 |
| CC1(S(=O)(=O)NC(=O)[C@@]23C[C@H]2/C=C\CCCCC[C@H](Nc2ccccc2F)C(=O)N2C[C@H](OC(=O)N4Cc5cccc(F)c5C4)C[C@H]2C(=O)N3)CC1 [Compound 1124] | 10 to 100 |
| CC(C)(C)c1cccc(N[C@H]2CCCCC/C=C\[C@@H]3C[C@@]3(C(=O)NS(=O)(=O)C3(C)CC3)NC(=O)[C@@H]3C[C@@H](OC(=O)N4Cc5cccc(F)c5C4)CN3C2=O)c1 [Compound 1126] | < 10 |
| CC1(S(=O)(=O)NC(=O)[C@@]23C[C@H]2/C=C\CCCCC[C@H](Nc2nc4ccccc4o2)C(=O)N2C[C@H](OC(=O)N4Cc5cccc(F)c5C4)C[C@H]2C(=O)N3)CC1 [Compound 1127] | 10 to 100 |
| O=C1N[C@]2(C(=O)NS(=O)(=O)C3CC3)C[C@H]2/C=C\CCCCC[C@H](Nc2cc(F)cc(C(F)(F)F)c2)C(=O)N2C[C@H](OC(=O)N3Cc4cccc(F)c4C3)C[C@@H]12 [Compound 1128] | < 10 |
| CC(C)Cn1c(O[C@@H]2C[C@H]3C(=O)N[C@]4(C(=O)NS(=O)(=O)N(C)C)C[C@H]4/C=C\CCCCC[C@H](NC(=O)OC(C)(C)C)C(=O)N3C2)nc2ccccc21 [Compound 1129] | < 10 |
| CN(C)S(=O)(=O)NC(=O)[C@@]12C[C@H]1/C=C\CCCCC[C@H](NC(=O)OC(C)(C)C)C(=O)N1C[C@H](Oc3nc4ccccc4n3C)C[C@H]1C(=O)N2 [Compound 1130] | < 10 |

What follows are compounds tested against NS3/NS4 complexes (Hepatitis C virus genotype 1a, UniProt P27958) (assay: NS3/NS4 inhibition activity (IC50)). Conditions: Table 3, read-out: IC50.
NS3/NS4 complexes, sequence (P27958 1027-1657): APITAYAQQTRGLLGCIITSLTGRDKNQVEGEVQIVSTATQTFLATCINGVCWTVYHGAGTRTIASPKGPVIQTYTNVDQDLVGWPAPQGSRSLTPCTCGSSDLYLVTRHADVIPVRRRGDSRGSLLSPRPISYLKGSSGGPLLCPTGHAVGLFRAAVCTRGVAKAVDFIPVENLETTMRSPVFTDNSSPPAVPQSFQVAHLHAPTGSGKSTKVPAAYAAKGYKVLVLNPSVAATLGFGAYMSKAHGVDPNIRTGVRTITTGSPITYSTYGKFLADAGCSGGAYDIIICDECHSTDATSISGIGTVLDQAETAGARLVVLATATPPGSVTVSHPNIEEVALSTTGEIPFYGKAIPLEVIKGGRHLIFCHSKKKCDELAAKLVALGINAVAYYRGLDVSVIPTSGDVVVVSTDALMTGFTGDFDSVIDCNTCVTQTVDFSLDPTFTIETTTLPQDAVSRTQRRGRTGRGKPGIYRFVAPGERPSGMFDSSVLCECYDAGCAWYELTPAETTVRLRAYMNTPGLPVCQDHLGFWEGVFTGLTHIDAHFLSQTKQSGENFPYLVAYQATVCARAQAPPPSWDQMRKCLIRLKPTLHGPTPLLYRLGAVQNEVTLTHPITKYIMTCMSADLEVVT
NS3/NS4 complexes, sequence (P27958 1658-1711): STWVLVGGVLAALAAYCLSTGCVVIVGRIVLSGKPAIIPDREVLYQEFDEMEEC
Format: biochemical
Method in brief: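 Buffer: 50 mM Tris-HCl (pH 7.5), 10 mM DTT, 25 μM NS4A peptide, 0.6 mM LDAO and 15% glycerol. Assays were run at 23 °C with preformed NS3/NS4 complex, and the compound concentration giving inhibition was derived as an IC50.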

| SMILES | IC50 [nM] |
| --- | --- |
| CC1(S(=O)(=O)NC(=O)[C@@]23C[C@H]2/C=C\CCCCC[C@H](Nc2cccc(C(F)(F)F)c2)C(=O)N2C[C@H](OC(=O)N4Cc5cccc(F)c5C4)C[C@H]2C(=O)N3)CC1 [Compound 1116] | < 10 |
| CC1(S(=O)(=O)NC(=O)[C@@]23C[C@H]2/C=C\CCCCC[C@H](Nc2cccc(F)c2)C(=O)N2C[C@H](OC(=O)N4Cc5cccc(F)c5C4)C[C@H]2C(=O)N3)CC1 [Compound 1117] | < 10 |
| CC1(S(=O)(=O)NC(=O)[C@@]23C[C@H]2/C=C\CCCCC[C@H](Nc2ccc(C(F)(F)F)cc2)C(=O)N2C[C@H](OC(=O)N4Cc5cccc(F)c5C4)C[C@H]2C(=O)N3)CC1 [Compound 1118] | < 10 |
| CC1(S(=O)(=O)NC(=O)[C@@]23C[C@H]2/C=C\CCCCC[C@H](Nc2ccc(OC(F)(F)F)cc2)C(=O)N2C[C@H](OC(=O)N4Cc5cccc(F)c5C4)C[C@H]2C(=O)N3)CC1 [Compound 1119] | < 10 |
| CC1(S(=O)(=O)NC(=O)[C@@]23C[C@H]2/C=C\CCCCC[C@H](Nc2ccc(F)c(C(F)(F)F)c2)C(=O)N2C[C@H](OC(=O)N4Cc5cccc(F)c5C4)C[C@H]2C(=O)N3)CC1 [Compound 1120] | < 10 |
| CC(=O)Nc1ccc(N[C@H]2CCCCC/C=C\[C@@H]3C[C@@]3(C(=O)NS(=O)(=O)C3(C)CC3)NC(=O)[C@@H]3C[C@@H](OC(=O)N4Cc5cccc(F)c5C4)CN3C2=O)cc1 [Compound 1121] | < 10 |
| CC1(S(=O)(=O)NC(=O)[C@@]23C[C@H]2/C=C\CCCCC[C@H](Nc2cccc(NS(C)(=O)=O)c2)C(=O)N2C[C@H](OC(=O)N4Cc5cccc(F)c5C4)C[C@H]2C(=O)N3)CC1 [Compound 1122] | < 10 |
| CC1(S(=O)(=O)NC(=O)[C@@]23C[C@H]2/C=C\CCCCC[C@H](Nc2ccc(C(F)(F)F)c(F)c2)C(=O)N2C[C@H](OC(=O)N4Cc5cccc(F)c5C4)C[C@H]2C(=O)N3)CC1 [Compound 1123] | < 10 |
| CC1(S(=O)(=O)NC(=O)[C@@]23C[C@H]2/C=C\CCCCC[C@H](Nc2ccccc2F)C(=O)N2C[C@H](OC(=O)N4Cc5cccc(F)c5C4)C[C@H]2C(=O)N3)CC1 [Compound 1124] | < 10 |
| CC(C)(C)c1cccc(N[C@H]2CCCCC/C=C\[C@@H]3C[C@@]3(C(=O)NS(=O)(=O)C3(C)CC3)NC(=O)[C@@H]3C[C@@H](OC(=O)N4Cc5cccc(F)c5C4)CN3C2=O)c1 [Compound 1126] | < 10 |
| CC1(S(=O)(=O)NC(=O)[C@@]23C[C@H]2/C=C\CCCCC[C@H](Nc2nc4ccccc4o2)C(=O)N2C[C@H](OC(=O)N4Cc5cccc(F)c5C4)C[C@H]2C(=O)N3)CC1 [Compound 1127] | < 10 |
| O=C1N[C@]2(C(=O)NS(=O)(=O)C3CC3)C[C@H]2/C=C\CCCCC[C@H](Nc2cc(F)cc(C(F)(F)F)c2)C(=O)N2C[C@H](OC(=O)N3Cc4cccc(F)c4C3)C[C@@H]12 [Compound 1128] | < 10 |
| CC(C)Cn1c(O[C@@H]2C[C@H]3C(=O)N[C@]4(C(=O)NS(=O)(=O)N(C)C)C[C@H]4/C=C\CCCCC[C@H](NC(=O)OC(C)(C)C)C(=O)N3C2)nc2ccccc21 [Compound 1129] | < 10 |
| CN(C)S(=O)(=O)NC(=O)[C@@]12C[C@H]1/C=C\CCCCC[C@H](NC(=O)OC(C)(C)C)C(=O)N1C[C@H](Oc3nc4ccccc4n3C)C[C@H]1C(=O)N2 [Compound 1130] | < 10 |
